Source: PMC3252466 (Chirality, 2011)

Key:
human CYP2C9 = human CYP2C9 (Homo sapiens, UniProt P11712); details: read-out: IC50 CYP2C9; recombinant human CYP2C9 15 nM, 150 μM MFC, 45 min, 37°C; mean (95% confidence interval)
human CYP2C19 = human CYP2C19 (Homo sapiens, UniProt P33261); details: read-out: IC50 CYP2C19; recombinant human CYP2C19 7.5 nM, 25 μM CEC, 30 min, 37°C; mean (95% confidence interval)
CYP2B6 = CYP2B6 (Homo sapiens, UniProt P20813); details: concentrations up to 10 μM; pooled HLMs, 100 μM bupropion; data not shown
Sequence of CYP2B6 (P20813 whole entry): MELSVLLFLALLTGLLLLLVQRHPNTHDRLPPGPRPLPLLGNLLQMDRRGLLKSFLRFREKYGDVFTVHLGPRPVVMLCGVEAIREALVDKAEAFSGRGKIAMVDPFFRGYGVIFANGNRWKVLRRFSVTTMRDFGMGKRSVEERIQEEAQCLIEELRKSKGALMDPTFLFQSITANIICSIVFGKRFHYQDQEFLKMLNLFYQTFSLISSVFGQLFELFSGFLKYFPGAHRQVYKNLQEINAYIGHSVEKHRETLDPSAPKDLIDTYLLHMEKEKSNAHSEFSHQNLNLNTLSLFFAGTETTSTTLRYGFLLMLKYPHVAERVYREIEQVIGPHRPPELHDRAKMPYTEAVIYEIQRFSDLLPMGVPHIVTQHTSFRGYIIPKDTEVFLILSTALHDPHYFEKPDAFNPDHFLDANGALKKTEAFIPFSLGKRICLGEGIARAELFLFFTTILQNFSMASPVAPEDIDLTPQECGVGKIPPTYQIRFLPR

Sequence of human CYP2C9 (P11712 whole entry): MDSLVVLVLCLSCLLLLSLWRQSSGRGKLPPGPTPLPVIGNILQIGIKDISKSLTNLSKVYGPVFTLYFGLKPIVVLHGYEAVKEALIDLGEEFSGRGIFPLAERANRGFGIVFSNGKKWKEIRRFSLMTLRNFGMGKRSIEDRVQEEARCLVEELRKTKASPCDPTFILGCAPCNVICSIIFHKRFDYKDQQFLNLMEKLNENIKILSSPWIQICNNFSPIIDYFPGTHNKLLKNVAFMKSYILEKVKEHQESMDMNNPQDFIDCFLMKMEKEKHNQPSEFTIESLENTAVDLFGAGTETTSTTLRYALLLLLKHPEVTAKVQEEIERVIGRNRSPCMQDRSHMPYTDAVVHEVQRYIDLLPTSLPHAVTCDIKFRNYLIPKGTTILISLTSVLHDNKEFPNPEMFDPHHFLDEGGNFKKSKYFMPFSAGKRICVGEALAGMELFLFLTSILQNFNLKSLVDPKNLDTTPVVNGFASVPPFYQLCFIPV
Sequence of human CYP2C19 (P33261 whole entry): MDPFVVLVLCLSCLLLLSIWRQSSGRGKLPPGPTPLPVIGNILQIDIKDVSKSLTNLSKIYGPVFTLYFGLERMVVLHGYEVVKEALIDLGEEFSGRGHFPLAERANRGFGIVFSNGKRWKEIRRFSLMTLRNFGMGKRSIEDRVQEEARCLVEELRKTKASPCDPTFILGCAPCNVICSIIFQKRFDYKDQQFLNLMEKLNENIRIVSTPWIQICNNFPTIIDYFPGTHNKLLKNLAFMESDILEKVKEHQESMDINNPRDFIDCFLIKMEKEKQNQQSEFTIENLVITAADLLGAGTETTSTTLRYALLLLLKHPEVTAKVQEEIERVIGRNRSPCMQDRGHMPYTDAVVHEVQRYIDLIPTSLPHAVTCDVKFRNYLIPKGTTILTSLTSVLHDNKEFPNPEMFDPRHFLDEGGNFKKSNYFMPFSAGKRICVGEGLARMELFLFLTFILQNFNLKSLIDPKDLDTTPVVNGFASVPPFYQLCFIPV

Row | Molecule | IC50 (human CYP2C9) [µM] | IC50 (human CYP2C19) [µM] | Inhibition of CYP2B6 (CYP2B6)
1 | O=C1C[C@H](c2ccc(O)cc2)Oc2cc(O)cc(O)c21 [(R)-naringenin] | 1.6 | 4.9 | –
2 | O=C1C[C@@H](c2ccc(O)cc2)Oc2cc(O)cc(O)c21 [(S)-naringenin] | 3.4 | 1.2 | –
3 | naringenin [rac-naringenin] | – | – | No appreciable inhibition
